Test [1] relates to VEGF-stimulated human umbilical vein endothelial cells (HUVECs). Description: MTT cell viability of VEGF-stimulated HUVECs (dasatinib vs Di-DAS). Particulars: HUVEC, 20 ng/mL VEGF165, 48 h, read-out: 50% inhibition concentration (IC50). The class given is cell-based. How it is done:
. Cells were incubated with 20 ng/mL VEGF165 and co-treated with dasatinib or Di-DAS at various concentrations for 48 h. FIG. 4B VEGF-stimulated HUVEC tube formation assay of Di-DAS-VER. […] FIG. 4C Quantitative HUVEC cell viability of Di-DAS-VER by MTT assay. […] MTT assay was performed at 24 h after treatment. […] . DAS: dasatinib; VER: verteporfin.
We tested the in vitro anti-angiogenic activity of DAS and Di-DAS in VEGF-stimulated human umbilical vein endothelial cells (HUVECs). […] . To assess therapeutic efficacy of combined anti-VEGF and PDT treatment, thiazolyl blue tetrazolium bromide (MTT) assay was conducted for measuring VEGF-stimulated HUVEC cell viability.

Test [2] concerns VEGF-stimulated HUVECs. Description: HUVEC scratch-wound healing assay. Particulars: DAS group, irradiation not stated, 20 h.
The subject of test [3] is VEGF-induced HUVEC tube formation. Nature of the test: VEGF-induced HUVEC tube formation assay. To be noted: DAS equivalent dose 0.05 μM, 20 ng/mL VEGF165, 4 h. The class given is cell-based, human.

Regarding `Cc1nc(Nc2ncc(C(=O)Nc3c(C)cccc3Cl)s2)cc(N2CCN(CCO)CC2)n1` [DAS, dasatinib], the IC50 in test [1] stood at 910 nM. Also, the scratch wound recovery in test [2] is listed as 11.35%.

On to verteporfin, for which the “inhibition of VEGF-induced HUVEC differentiation and formation of vessel-like tubes” value in test [3] was “could not inhibit”.

The values are drawn from patent US20240374730A1, “PHOTOACTIVATABLE PRODRUG NANOPARTICLES FOR COMBINED ANTI-ANGIOGENESIS AND PHOTODYNAMIC THERAPY” (The University of Hong Kong, priority 2021, published 2024).
